Laboratory results reported in publication PMC6629894, “Ruthenium Complexes Containing Heterocyclic Thioamidates Trigger Caspase-Mediated Apoptosis Through MAPK Signaling in Human Hepatocellular Carcinoma Cells” (Frontiers in Oncology, 2019).
Read-outs that look alike come from different tables or passages of the source.

Experiments:
[1] = tested on: multicellular spheroids formed from HepG2 cells; assay: 3D multicellular spheroid culture, Alamar blue, 72 h; type: cell-based, human; settings: read-out: IC50 and 95% CI, 3D HepG2 spheroids
Experimental: HepG2 cells were cultivated as 3D multicellular spheroids in a 96-well plate with a cell-repellent surface. Briefly, 100 μL of a suspension of cells (5 × 10^5 cells/mL) was seeded into a 96-well plate with a cell-repellent surface (Greiner Bio-One, Kremsmünster, Austria) and cultured in RPMI 1640 medium with 10% fetal bovine serum, 2 mM glutamine plus 3% Matrigel (BD Biosciences, San Jose, CA, EUA) and 50 μg/mL gentamycin at 37°C with 5% CO2. Spheroids with stable structures formed after 3 days. Then, the complexes were dissolved in 0.5% DMSO at eight different concentrations from 0.19 to 25 μg/mL, were added to each well and incubated for 72 h. […] At the end of the experiment, morphological changes were examined by light microscopy (Olympus BX41, Tokyo, Japan) using Image-Pro software (Media Cybernetics, Inc. Silver Spring, USA), and cytotoxicity was quantified with the Alamar blue method as described above.

[2] = tested on: SCC-4 (human oral squamous cell carcinoma); assay: Alamar blue cytotoxicity assay, 72 h; type: cell-based
Excerpt: (§1) The cell lines HepG2 (human hepatocellular carcinoma), HL-60 (human promyelocytic leukemia), K-562 (human chronic myelogenous leukemia), B16-F10 (mouse melanoma), MCF-7 (human breast carcinoma), HCT116 (human colon carcinoma), HSC-3 (human oral squamous cell carcinoma), SCC-4 (human oral squamous cell carcinoma), MRC-5 (human lung fibroblast), WT SV40 MEF (wild-type immortalized mouse embryonic fibroblast), and BAD KO SV40 MEF (BAD gene knockout immortalized mouse embryonic fibroblasts) were obtained from the American Type Culture Collection (ATCC, Manassas, VA, USA). Cells were cultured in RPMI 1640 medium (Gibco-BRL, Gaithersburg, MD, USA) with 10% fetal bovine serum (Life, Carlsbad, CA, USA), 2 mM L-glutamine (Vetec Química Fina, Duque de Caxias, RJ, Brazil) and 50 μg/mL gentamycin (Life). For all experiments, adherent cells were collected by treatment with 0.25% trypsin-EDTA solution (Gibco-BRL). All cell lines were cultured in flasks at 37°C in 5% CO2 and were subcultured every 3–4 days to maintain exponential growth. All cell lines were tested for mycoplasma using a mycoplasma staining kit (Sigma-Aldrich Co.) to validate that the cells that were used were free from contamination.
(§2) Cytotoxicity was measured colorimetrically using an Alamar blue method that was performed as previously described ([20], [21]). Cells were seeded in 96-well plates for all experiments (7 × 10^4 cells/mL for adherent cells or 3 × 10^5 cells/mL for suspension cells in 100 μL of medium) and incubated overnight at 37°C with 5% CO2 to allow for adherence. The complexes were dissolved in 0.5% dimethyl sulfoxide (DMSO, Vetec Química Fina) at eight different concentrations from 0.19 to 25 μg/mL and were added to each well and incubated for 72 h. The negative control was treated with the vehicle (0.5% DMSO) that was used to solubilize and dilute the complexes. […] Four (for cell lines) or 24 h (for PBMCs) before the end of incubation, 20 μL of a stock solution (0.312 mg/mL) of resazurin (Sigma-Aldrich Co.) was added to each well. Absorbance was measured at 570 and 600 nm using a SpectraMax 190 Microplate Reader (Molecular Devices, Sunnyvale, CA, USA).

[3] = tested on: HSC-3 (human oral squamous cell carcinoma); assay: Alamar blue cytotoxicity assay, 72 h; type: cell-based
Excerpt: as §1, §2

[4] = tested on: HCT116 (human colon carcinoma); assay: Alamar blue cytotoxicity assay, 72 h; type: cell-based
Excerpt: as §1, §2

[5] = tested on: MCF-7 (human breast carcinoma); assay: Alamar blue cytotoxicity assay, 72 h; type: cell-based
Excerpt: as §1, §2

[6] = tested on: HL-60 (human promyelocytic leukemia); assay: Alamar blue cytotoxicity assay, 72 h; type: cell-based
Excerpt: as §1, §2

HepG2 cells = assay: Cell morphology: May-Grunwald-Giemsa staining and light scattering; type: cell-based, human; settings: 24 and 48 h
Experimental: For all subsequent in vitro experiments, 2 mL of a suspension of HepG2 cells were seeded (7 × 10^4 cells/mL) and incubated in a 24-well plate overnight to allow the cells to adhere to the plate surface.
To evaluate alterations in the morphology, cells were cultured on a coverslip and stained with May-Grunwald-Giemsa. Morphological changes were examined by light microscopy (Olympus BX41) using Image-Pro software (Media Cybernetics).

[7] = tested on: cancer cells with different histological types; assay: Cytotoxicity, summary over the panel of cancer cells; type: cell-based; settings: read-out: IC50 values against cancer cells (summary)
Experimental: as §2

ERK1/2 (pT202/pY204) = assay: Phosflow analysis of phosphorylated MAPK; type: cell-based, human; settings: HepG2, 10 μM, 15 min
Experimental: (§3) Phosphorylated extracellular signal-regulated kinase (ERK), JNK/SAPK and p38 MAPK were quantified by flow cytometry as previously described ([26]). The cells were collected and resuspended in 0.5–1 mL of 4% formaldehyde and fixed for 10 min at 37°C. Then, the tubes were chilled on ice for 1 min. The cells were permeabilized by slowly adding ice-cold 100% methanol to the cooled cells while gently vortexing to a final concentration of 90% methanol and incubating for 30 min on ice. After washing with incubation buffer (0.5% bovine serum albumin in PBS), PE mouse anti-JNK/SAPK (pT183/pY185) (ID 562480), PE mouse anti-p38 MAPK (pT180/pY182) (ID 612565), PE mouse anti-ERK1/2 (pT202/pY204) (ID 612566) or PE mouse IgG1,κ isotype control (ID 555749) antibodies, all from BD Biosciences, were added and incubated for 1 h at room temperature. Finally, the cells were washed with PBS, and the cell fluorescence was measured by flow cytometry.
(§4) For all flow cytometry analyses, at least 10^4 events were recorded per sample using a BD LSRFortessa cytometer, BD FACSDiva Software (BD Biosciences) and FlowJo Software 10 (FlowJo Lcc; Ashland, OR, USA). Cellular debris was omitted from the analysis.

p38 MAPK (pT180/pY182) = assay: Phosflow analysis of phosphorylated MAPK; type: cell-based, human; settings: HepG2, 10 μM
Experimental: as §3, §4

JNK/SAPK (pT183/pY185) = assay: Phosflow analysis of phosphorylated MAPK; type: cell-based, human; settings: HepG2, 10 μM
Experimental: as §3, §4

human topoisomerase IB = tested on: human topoisomerase IB; design: method as in PMID 26795676; settings: ref [18], [19]; cited from earlier work

Row | Compound | IC50 ([1]; Homo sapiens) [µM] | IC50 ([2]; Homo sapiens, SCC-4, 72 h, read-out: IC50 and 95% CI) [µM] | Selectivity index (SI = IC50 [noncancerous cells]/IC50 [cancer cells]) ([2]; MRC-5 vs SCC-4) | Selectivity index (SI = IC50 [noncancerous cells]/IC50 [cancer cells]) ([2]; PBMCs vs SCC-4) | Selectivity index (SI = IC50 [noncancerous cells]/IC50 [cancer cells]) ([3]; MRC-5 vs HSC-3) | Selectivity index (SI = IC50 [noncancerous cells]/IC50 [cancer cells]) ([3]; PBMCs vs HSC-3) | Selectivity index (SI = IC50 [noncancerous cells]/IC50 [cancer cells]) ([4]; MRC-5 vs HCT116) | Selectivity index (SI = IC50 [noncancerous cells]/IC50 [cancer cells]) ([4]; PBMCs vs HCT116) | Selectivity index (SI = IC50 [noncancerous cells]/IC50 [cancer cells]) ([5]; MRC-5 vs MCF-7) | Selectivity index (SI = IC50 [noncancerous cells]/IC50 [cancer cells]) ([5]; PBMCs vs MCF-7) | Selectivity index (SI = IC50 [noncancerous cells]/IC50 [cancer cells]) ([6]; MRC-5 vs HL-60) | Selectivity index (SI = IC50 [noncancerous cells]/IC50 [cancer cells]) ([6]; PBMCs vs HL-60) | cell morphology (HepG2 cells) | IC50 [7] [µM] | phosphorylation of ERK1/2 (ERK1/2 (pT202/pY204)) | phosphorylation of p38 MAPK (p38 MAPK (pT180/pY182)) | phosphorylation of JNK/SAPK (JNK/SAPK (pT183/pY185)) | IC50 [1] [µM] | supercoiled DNA relaxation mediated by human topoisomerase IB (human topoisomerase IB) | IC50 ([5]; read-out: IC50 and 95% CI, MCF-7, 72 h) [µM]
1 | COc1cccc2c1C(=O)c1c(O)c3c(c(O)c1C2=O)C[C@@](O)(C(=O)CO)C[C@@H]3O[C@H]1C[C@H](N)[C@H](O)[C@H](C)O1 [Doxorubicin, reference compound] | 10.3 | 4 | 0.1 | 0.6 | 0.8 | 5.0 | 1.3 | 8.3 | 1.0 | 6.3 | 2.0 | 12.5 | apoptosis-related morphological alterations | – | – | – | – | – | – | –
2 | Cn1ccnc1[S-].F[P-](F)(F)(F)(F)F.[Ru+2].c1ccc(-c2ccccn2)nc1.c1ccc(P(CCCCP(c2ccccc2)c2ccccc2)c2ccccc2)cc1 [Complex 1, [Ru(mmi)(bipy)(dppb)]PF6] | – | – | – | – | – | – | – | – | – | – | – | – | – | < 10 | induced the phosphorylation of ERK1/2 | no significant increase | no significant increase | 6.5 | inhibit the supercoiled DNA relaxation | –
3 | F[P-](F)(F)(F)(F)F.[Ru+2].[S-]C1=NCCS1.c1ccc(-c2ccccn2)nc1.c1ccc(P(CCCCP(c2ccccc2)c2ccccc2)c2ccccc2)cc1 [Complex 2, [Ru(tzdt)(bipy)(dppb)]PF6] | – | – | 0.4 | 0.7 | 0.7 | 1.2 | 0.6 | 1.0 | 0.2 | 0.4 | 1.5 | 2.4 | – | < 10 | – | – | – | 7.3 | inhibit the supercoiled DNA relaxation | 7.3
